{
  "source": "BindingDB's records for doi:10.1016/0960-894X(95)00556-9",
  "about": "(1996)",
  "data": [
    {"assay": "Compound was evaluated for its ability to displace [3H]-L-364,718 from Cholecystokinin type A receptor from rat pancreas", "units": {"IC50": "nM"}, "values": [
      {"smiles": "CCC(C)(C)C(=O)CN1C(=O)C(NC(=O)Nc2cccc(C)c2)N=C(c2ccccc2)c2ccccc21", "note": "(stereo not drawn) [1-[1-(3,3-Dimethyl-2-oxo-pentyl)-2-oxo-5-phenyl-2,3-dihydro-1H-benzo[e][1,4]diazepin-3-yl]-3-m-tolyl-urea]", "IC50": 720},
      {"smiles": "Cc1cccc(NC(=O)NC2N=C(c3ccccc3)c3ccccc3N(CC(=O)CC3CCCCC3)C2=O)c1", "note": "(stereo not drawn) [1-[1-(3-Cyclohexyl-2-oxo-propyl)-2-oxo-5-phenyl-2,3-dihydro-1H-benzo[e][1,4]diazepin-3-yl]-3-m-tolyl-urea]", "IC50": 480},
      {"smiles": "Cc1cccc(NC(=O)NC2N=C(c3ccccc3)c3ccccc3N(CC(=O)C(C)C)C2=O)c1", "note": "(stereo not drawn) [1-[1-(3-Methyl-2-oxo-butyl)-2-oxo-5-phenyl-2,3-dihydro-1H-benzo[e][1,4]diazepin-3-yl]-3-m-tolyl-urea]", "IC50": 1200},
      {"smiles": "Cc1cccc(NC(=O)N[C@@H]2N=C(c3ccccc3)c3ccccc3N(CC(=O)C3CCCC3)C2=O)c1", "note": "[1-[(R)-1-(2-Cyclopentyl-2-oxo-ethyl)-2-oxo-5-phenyl-2,3-dihydro-1H-benzo[e][1,4]diazepin-3-yl]-3-m-tolyl-urea]", "IC50": 440},
      {"smiles": "Cc1cccc(NC(=O)N[C@H]2N=C(c3ccccc3)c3ccccc3N(CC(=O)C3CCCC3)C2=O)c1", "note": "[1-[(S)-1-(2-Cyclopentyl-2-oxo-ethyl)-2-oxo-5-phenyl-2,3-dihydro-1H-benzo[e][1,4]diazepin-3-yl]-3-m-tolyl-urea]", "IC50": 2500},
      {"smiles": "Cc1cccc(NC(=O)NC2N=C(c3ccccc3)c3ccccc3N(CC(=O)C3(C)CCCCC3)C2=O)c1", "note": "(stereo not drawn) [1-{1-[2-(1-Methyl-cyclohexyl)-2-oxo-ethyl]-2-oxo-5-phenyl-2,3-dihydro-1H-benzo[e][1,4]diazepin-3-yl}-3-m-tolyl-urea]", "IC50": "> 10000"},
      {"smiles": "Cc1cccc(NC(=O)NC2N=C(c3ccccc3)c3ccccc3N(CC(=O)C3(C)CCCC3)C2=O)c1", "note": "(stereo not drawn) [1-{1-[2-(1-Methyl-cyclopentyl)-2-oxo-ethyl]-2-oxo-5-phenyl-2,3-dihydro-1H-benzo[e][1,4]diazepin-3-yl}-3-m-tolyl-urea]", "IC50": 293}
    ]},
    {"assay": "Compound was evaluated for its ability to displace [3H]L-364718 from Cholecystokinin type A receptor from rat pancreas at dose of 0.03 umol/kg", "units": {"IC50": "nM"}, "values": [
      {"smiles": "Cc1cccc(NC(=O)N[C@@H]2N=C(c3ccccc3)c3ccccc3N(CC(=O)C(C)(C)C)C2=O)c1", "note": "[1-[(R)-1-(3,3-Dimethyl-2-oxo-butyl)-2-oxo-5-phenyl-2,3-dihydro-1H-benzo[e][1,4]diazepin-3-yl]-3-m-tolyl-urea]", "IC50": 111}
    ]}
  ]
}
